The values that follow come from PubChem BioAssay AID1963870 (Molecular Pharmacology Branch, DTP, NCI, 2024).

The assay has as its system 292921-168-R-J2-PDC KRAS tumor spheroid viability. In words: Anticancer human tumor 292921-168-R-J2-PDC patient-derived pancreatic carcinoma cell line growth inhibition [KRAS2]. The conditions noted are these: spheroids with HUVEC and MSC; for viability, T/C: stronger effect = lower value. In short, it runs like this:
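Combination screen of spheroid viability in tumor-cell co-cultures with endothelial (HUVEC) and mesenchymal stem cell stroma. Each agent was tested in half-log dilutions, topping at clinical Cmax or at 10 microM without a known Cmax.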

[1] abbreviates: curve of first compound, second compound 0.1 µM.
[2] abbreviates: curve of first compound, second compound 0.316 µM.
The mark [3] stands for this setting: curve of first compound, second compound 1 µM.
Where [4] appears, read: curve of first compound, second compound 3.16 µM.
[5] abbreviates: curve of first compound, second compound 10 µM.
The mark [6] stands for this setting: second compound 0.1 µM, first compound 0.01 µM.
[7] abbreviates: second compound 0.1 µM, first compound 0.0316 µM.
Where [8] appears, read: second compound 0.1 µM, first compound 0.1 µM.
Setting [9] is: second compound 0.1 µM, first compound 0.316 µM.
Setting [10] is: second compound 0.1 µM, first compound 1 µM.
Setting [11] is: second compound 0.1 µM, first compound 3.16 µM.
Where [12] appears, read: second compound 0.316 µM, first compound 0.01 µM.
Where [13] appears, read: second compound 0.316 µM, first compound 0.0316 µM.
The mark [14] stands for this setting: second compound 0.316 µM, first compound 0.1 µM.
Where [15] appears, read: second compound 0.316 µM, first compound 0.316 µM.
Setting [16] is: second compound 0.316 µM, first compound 1 µM.
Where [17] appears, read: second compound 0.316 µM, first compound 3.16 µM.
Where [18] appears, read: second compound 1 µM, first compound 0.01 µM.
Where [19] appears, read: second compound 1 µM, first compound 0.0316 µM.
[20] abbreviates: second compound 1 µM, first compound 0.1 µM.
Setting [21] is: second compound 1 µM, first compound 0.316 µM.
Setting [22] is: second compound 1 µM, first compound 1 µM.
Where [23] appears, read: second compound 1 µM, first compound 3.16 µM.
The mark [24] stands for this setting: second compound 3.16 µM, first compound 0.01 µM.
[25] abbreviates: second compound 3.16 µM, first compound 0.0316 µM.
The mark [26] stands for this setting: second compound 3.16 µM, first compound 0.1 µM.
Where [27] appears, read: second compound 3.16 µM, first compound 0.316 µM.
Setting [28] is: second compound 3.16 µM, first compound 1 µM.
Setting [29] is: second compound 3.16 µM, first compound 3.16 µM.
Where [30] appears, read: second compound 10 µM, first compound 0.01 µM.
The mark [31] stands for this setting: second compound 10 µM, first compound 0.0316 µM.
[32] abbreviates: second compound 10 µM, first compound 0.1 µM.
The mark [33] stands for this setting: second compound 10 µM, first compound 0.316 µM.
[34] abbreviates: second compound 10 µM, first compound 1 µM.
Setting [35] is: second compound 10 µM, first compound 3.16 µM.

Structures are written as SMILES. Some results are limits rather than exact numbers.
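Note: drug exposure lasted seven days after spheroids formed for three days.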
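Throughout, for viability, T/C: percent of DMSO vehicle control viability which is 100%.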

A word on the IC50: it is the point on the concentration scale where inhibition reaches its midpoint. By viability, T/C is commonly meant the result in the treated group divided by that in the control group, in per cent. Turning to `CC1COCCN1c1cc(-c2ccnn2C)c2ccnc(-c3ccn[nH]3)c2n1` (centres undefined) + CNCc1ccccc1-c1csc(C(C)Nc2nc(C)nc3cc(OC)c(OC)cc23)c1, the IC50 is < 10 nM under setting [1]; < 10 nM under setting [2]; < 10 nM under setting [3]; < 10 nM under setting [4]; < 10 nM under setting [5]. Also, the viability, T/C under setting [6] is 39.3%; the viability, T/C under setting [7] was 21%; the viability, T/C under setting [8] was 15.5%; the viability, T/C under setting [9] is 13.1%; the viability, T/C under setting [10] is 15.2%; the viability, T/C under setting [11] is 16.1%. The viability, T/C under setting [12] is 34.4%; the viability, T/C under setting [13] is 19.7%; the viability, T/C under setting [14] is 12.7%; the viability, T/C under setting [15] was 12.9%; the viability, T/C under setting [16] was 14.1%; the viability, T/C under setting [17] was 14.8%. The viability, T/C under setting [18] was 28.9%; the viability, T/C under setting [19] was 16.3%; the viability, T/C under setting [20] was 11.1%; the viability, T/C under setting [21] was 11.3%; the viability, T/C under setting [22] was 13.5%; the viability, T/C under setting [23] was 12.8%. For the same compound, the viability, T/C under setting [24] was 0.07%; the viability, T/C under setting [25] was 0.07%; the viability, T/C under setting [26] is 0.05%; the viability, T/C under setting [27] was 0.08%; the viability, T/C under setting [28] is 0.1%; the viability, T/C under setting [29] is 0.16%. Besides, the viability, T/C was 0.11% under setting [30]; 0.09% under setting [31]; 0.27% under setting [32]; 0.08% under setting [33]; 0.09% under setting [34]; 0.15% under setting [35].

For `CC(=O)OC12COC1CC(O)C1(C)C(=O)C(O)C3=C(C)C(OC(=O)C(O)C(NC(=O)OC(C)(C)C)c4ccccc4)CC(O)(C(OC(=O)c4ccccc4)C21)C3(C)C` (centres undefined) + C=CC(=O)N1CCN(c2nc(=O)n(-c3c(C)ccnc3C(C)C)c3nc(-c4c(O)cccc4F)c(F)cc23)C(C)C1, the IC50 is, setting by setting: under setting [1], < 10 nM; under setting [2], < 10 nM; under setting [3], < 10 nM; under setting [4], < 10 nM; under setting [5], < 10 nM. Further, the viability, T/C was 14.6% under setting [6]; 15.4% under setting [7]; 14.2% under setting [8]; 12.3% under setting [9]; 14.5% under setting [10]; 17.3% under setting [11]. The viability, T/C is 12.9% under setting [12]; 17.1% under setting [13]; 13% under setting [14]; 13.1% under setting [15]; 13.7% under setting [16]; 18.3% under setting [17]. The viability, T/C is, setting by setting: under setting [18], 17.1%; under setting [19], 17.5%; under setting [20], 14.9%; under setting [21], 12.9%; under setting [22], 14.4%; under setting [23], 19.1%. For the same compound, the viability, T/C runs as follows: under setting [24], 18.1%; under setting [25], 18.2%; under setting [26], 16.9%; under setting [27], 15.7%; under setting [28], 16.1%; under setting [29], 17.9%. Further, the viability, T/C is, setting by setting: under setting [30], 20.5%; under setting [31], 18.4%; under setting [32], 16.6%; under setting [33], 15.3%; under setting [34], 15.7%; under setting [35], 17.2%.

With `COc1cc(OC)cc(N(CCNC(C)C)c2ccc3ncc(-c4cnn(C)c4)nc3c2)c1`, the viability, T/C is 72.9% [middle of 5 runs] (compound 0.0316 µM); 77.1% [middle of 5 runs] (compound 0.1 µM); 77.7% [middle of 5 runs] (compound 0.316 µM); 69.4% [middle of 5 runs] (compound 1 µM); 45.9% [middle of 5 runs] (compound 3.16 µM); 0.9% [middle of 5 runs] (compound 10 µM). Moreover, the 50% inhibitory concentration (IC50) (curve of compound) was 2.48 µM [middle of 5 runs].

`CC(C)n1nc(-c2ccc3oc(N)nc3c2)c2c(N)ncnc21` + CNCc1ccccc1-c1csc(C(C)Nc2nc(C)nc3cc(OC)c(OC)cc23)c1: the IC50 under setting [1] was 3.06 nM; the IC50 under setting [2] came to 2.08 nM; the IC50 under setting [3] was 0.991 nM; the IC50 under setting [4] was < 0.316 nM; the half-maximal inhibitory concentration (IC50) under setting [5] was < 0.316 nM. For the same compound, the viability, T/C reads like this: (second compound 0.1 µM, first compound 0.000316 µM) 76.3%; (second compound 0.1 µM, first compound 0.001 µM) 63.9%; (second compound 0.1 µM, first compound 0.00316 µM) 50.2%; under setting [6], 36.2%; under setting [7], 25.3%; under setting [8], 23.7%. For the same compound, the viability, T/C by setting is: (second compound 0.316 µM, first compound 0.000316 µM) 79%; (second compound 0.316 µM, first compound 0.001 µM) 60.7%; (second compound 0.316 µM, first compound 0.00316 µM) 43.3%; under setting [12], 33.5%; under setting [13], 24.5%; under setting [14], 21.5%. Also, the viability, T/C (second compound 1 µM, first compound 0.000316 µM) is 74.4%; the viability, T/C (second compound 1 µM, first compound 0.001 µM) is 50%; the viability, T/C (second compound 1 µM, first compound 0.00316 µM) is 33.6%; the viability, T/C under setting [18] is 25.7%; the viability, T/C under setting [19] is 22.7%; the viability, T/C under setting [20] is 19%. The viability, T/C (second compound 3.16 µM, first compound 0.000316 µM) was 1.37%; the viability, T/C (second compound 3.16 µM, first compound 0.001 µM) is 0.62%; the viability, T/C (second compound 3.16 µM, first compound 0.00316 µM) was 0.91%; the viability, T/C under setting [24] was 0.17%; the viability, T/C under setting [25] was 0.67%; the viability, T/C under setting [26] is 0.43%. The viability, T/C is 0.08% (second compound 10 µM, first compound 0.000316 µM); 0.56% (second compound 10 µM, first compound 0.001 µM); 0.08% (second compound 10 µM, first compound 0.00316 µM); 0.09% under setting [30]; 0.85% under setting [31]; 0.31% under setting [32].

For `C=CC(=O)N1CCN(c2nc(OCC3CCCN3C)nc3c2CCN(c2cccc4cccc(C)c24)C3)CC1CC#N` (centres undefined), the 50% inhibitory concentration (IC50) was 821 nM [middle of 5 runs] (compound alone, run of 08/26/2021) and 647 nM [middle of 5 runs] (compound alone, run of 09/02/2021).
